Test results as given in paper PMC3991565 (Science (New York, N.Y.), 2014).
pIC50, pKi: −log10 of the molar value.

Columns and labels:
mGlu1 [1] = conditions: mGlu1 NAM potency of FITM and analogs used for docking; cited from earlier work
mGlu1 [2] = assay: potency; type: cell-based; conditions: relative to FITM; ref 9 values
mGlu5 = mGlu5 (Homo sapiens, UniProt P41594); assay: FITM selectivity for mGlu1 over mGlu5; type: cell-based; conditions: mGlu1 versus mGlu5, Fig. S12
human mGlu1 receptor = human mGlu1 receptor (Homo sapiens, UniProt Q13255); assay: FITM binding affinity at mGlu1
[3] = biological target: wild-type (WT) full-length human mGlu1 receptor (Homo sapiens, UniProt Q13255); assay: FITM-mediated antagonism of glutamate at wild-type full-length receptor; type: cell-based; conditions: WT full-length human mGlu1, versus glutamate
wild-type (WT) full-length human mGlu1 receptor, sequence (Q13255 19-1194): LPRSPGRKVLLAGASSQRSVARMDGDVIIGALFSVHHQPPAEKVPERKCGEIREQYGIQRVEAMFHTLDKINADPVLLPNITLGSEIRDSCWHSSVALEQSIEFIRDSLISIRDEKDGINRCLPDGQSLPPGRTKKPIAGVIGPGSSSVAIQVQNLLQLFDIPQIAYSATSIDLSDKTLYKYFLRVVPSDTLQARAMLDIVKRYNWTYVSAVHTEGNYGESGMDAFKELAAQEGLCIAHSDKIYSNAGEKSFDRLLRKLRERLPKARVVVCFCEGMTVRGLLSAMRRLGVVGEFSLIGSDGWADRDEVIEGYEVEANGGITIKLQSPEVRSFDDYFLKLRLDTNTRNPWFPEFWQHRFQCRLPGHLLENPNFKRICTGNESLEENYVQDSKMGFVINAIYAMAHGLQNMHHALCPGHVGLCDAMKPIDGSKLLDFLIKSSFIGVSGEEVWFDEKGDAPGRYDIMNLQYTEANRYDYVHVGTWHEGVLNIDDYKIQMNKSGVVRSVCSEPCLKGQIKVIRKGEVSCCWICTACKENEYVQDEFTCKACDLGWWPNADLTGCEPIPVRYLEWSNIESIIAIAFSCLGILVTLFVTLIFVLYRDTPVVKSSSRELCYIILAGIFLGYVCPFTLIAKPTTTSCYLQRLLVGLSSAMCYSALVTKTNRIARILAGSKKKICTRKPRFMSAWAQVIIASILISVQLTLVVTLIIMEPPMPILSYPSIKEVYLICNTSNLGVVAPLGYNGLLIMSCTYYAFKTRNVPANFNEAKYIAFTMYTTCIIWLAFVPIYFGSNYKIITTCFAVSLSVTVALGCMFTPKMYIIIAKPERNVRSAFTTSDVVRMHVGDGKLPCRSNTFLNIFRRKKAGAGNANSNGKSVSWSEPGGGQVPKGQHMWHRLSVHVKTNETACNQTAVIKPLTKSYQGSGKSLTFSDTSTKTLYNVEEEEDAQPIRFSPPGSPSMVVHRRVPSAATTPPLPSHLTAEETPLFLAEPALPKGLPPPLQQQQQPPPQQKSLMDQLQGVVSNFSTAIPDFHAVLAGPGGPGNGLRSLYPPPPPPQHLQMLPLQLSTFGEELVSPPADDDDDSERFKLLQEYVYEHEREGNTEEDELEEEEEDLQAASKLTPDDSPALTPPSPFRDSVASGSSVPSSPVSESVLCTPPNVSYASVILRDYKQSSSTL

human mGlu1 receptor, sequence (Q13255 581-860): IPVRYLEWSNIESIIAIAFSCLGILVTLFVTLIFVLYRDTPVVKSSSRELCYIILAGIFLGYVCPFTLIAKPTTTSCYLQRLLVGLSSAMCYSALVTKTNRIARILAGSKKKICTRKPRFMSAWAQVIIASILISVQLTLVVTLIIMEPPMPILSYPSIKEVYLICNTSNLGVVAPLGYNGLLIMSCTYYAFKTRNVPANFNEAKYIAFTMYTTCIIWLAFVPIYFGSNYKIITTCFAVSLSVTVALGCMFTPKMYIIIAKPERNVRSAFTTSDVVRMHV
mGlu5, sequence (P41594 21-1212): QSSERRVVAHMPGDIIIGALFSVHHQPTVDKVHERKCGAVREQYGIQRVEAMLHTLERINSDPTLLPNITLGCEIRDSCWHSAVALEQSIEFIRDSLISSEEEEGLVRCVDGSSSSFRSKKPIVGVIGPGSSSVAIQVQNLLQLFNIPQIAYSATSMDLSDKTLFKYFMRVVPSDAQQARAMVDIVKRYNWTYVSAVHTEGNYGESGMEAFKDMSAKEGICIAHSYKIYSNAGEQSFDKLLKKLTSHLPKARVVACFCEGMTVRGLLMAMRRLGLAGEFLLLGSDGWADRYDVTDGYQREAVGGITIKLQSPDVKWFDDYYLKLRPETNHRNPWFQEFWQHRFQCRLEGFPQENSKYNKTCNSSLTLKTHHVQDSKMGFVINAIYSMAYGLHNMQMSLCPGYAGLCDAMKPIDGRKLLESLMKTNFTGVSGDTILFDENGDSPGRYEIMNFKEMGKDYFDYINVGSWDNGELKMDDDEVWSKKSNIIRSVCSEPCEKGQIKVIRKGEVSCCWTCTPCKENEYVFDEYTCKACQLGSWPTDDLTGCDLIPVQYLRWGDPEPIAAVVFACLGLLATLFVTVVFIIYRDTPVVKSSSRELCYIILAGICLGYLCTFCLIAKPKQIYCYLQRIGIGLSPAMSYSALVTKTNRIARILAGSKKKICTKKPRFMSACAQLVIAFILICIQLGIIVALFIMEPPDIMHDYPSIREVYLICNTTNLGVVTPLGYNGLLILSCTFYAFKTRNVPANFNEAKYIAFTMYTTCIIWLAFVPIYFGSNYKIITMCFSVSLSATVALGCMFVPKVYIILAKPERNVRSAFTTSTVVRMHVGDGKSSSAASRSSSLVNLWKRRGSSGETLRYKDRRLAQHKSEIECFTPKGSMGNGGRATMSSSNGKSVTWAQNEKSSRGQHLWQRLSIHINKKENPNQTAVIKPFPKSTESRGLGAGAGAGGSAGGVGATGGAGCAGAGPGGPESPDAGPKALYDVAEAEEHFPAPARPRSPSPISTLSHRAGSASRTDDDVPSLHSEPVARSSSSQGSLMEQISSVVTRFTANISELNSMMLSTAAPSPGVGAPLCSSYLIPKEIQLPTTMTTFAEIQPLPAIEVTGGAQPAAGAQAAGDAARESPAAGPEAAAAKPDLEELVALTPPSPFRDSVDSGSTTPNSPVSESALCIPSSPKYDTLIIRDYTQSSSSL

Row | Structure (SMILES) | pIC50 (mGlu1 [1]) | fold lower potency than FITM (mGlu1 [2]) | subtype selectivity (mGlu5) | pKi (human mGlu1 receptor) | mode of allosteric modulation [3]
1 | CC(C)N(C)c1cc(-c2csc(N(C)C(=O)c3ccc(F)cc3)n2)ncn1 [compound 28] | 7.11 | approximately 10 fold |  |  | 
2 | CC(C)Nc1cc(-c2csc(N(C)C(=O)c3ccc(F)cc3)n2)ncn1 [FITM, 4-fluoro-N-(4-(6-(isopropylamino)pyrimidin-4-yl)thiazol-2-yl)-N-methylbenzamide] | 8.30 |  | selectivity for mGlu1 over mGlu5 | 8.60 | full NAM
